Marks after values point to notes of the source that are not given here.
Test system: collapsibility of the upper airways
Assay: Animal model of obstructive sleep apnoea in the pig (collapse of the upper airways under negative pressure after nasal administration)
Type: in vivo, German Landrace pigs
Description: The effects of the formulations according to the invention of the inhibitors of TASK-1 and/or TASK-3 channels on the activation threshold of the genioglossus muscle by negative pressure and the collapsibility of the upper airways were investigated in a pig model for obstructive sleep apnoea. Using negative pressure, it is possible to induce collapse and thus obstruction of the upper airways in anaesthetized, spontaneously breathing pigs [Wirth et al., Sleep 36, 699-708 (2013)]. German Landrace pigs were used for the model. Since the nasal axis is in an almost vertical position in humans in a horizontal sleeping position, the pigs in the experiments were fixed in a sitting position (70 degrees), wherein the nose pointed upwards. After nasal administration, the formulation therefore flowed downwards over all regions of the upper airways. The pigs were anaesthetized and tracheotomized. One cannula each was inserted into the rostral and the caudal part of the trachea. Using a T connector, the rostral cannula was connected on the one hand to a device generating negative pressure and on the other hand to the caudal cannula. Using a T connector, the caudal cannula was connected to the rostral cannula and to a tube which allowed spontaneous breathing circumventing the upper airways. By appropriate closing and opening of the tubes it was thus possible for the pig to change from normal nasal breathing to breathing via the caudal cannula during the time when the upper airways were isolated and were connected to the device for generating negative pressure. The muscle activity of the Musculus genioglossus was recorded by electromyogram (EMG). At certain points in time, the collapsibility of the upper airways was tested by having the pig breathe via the caudal cannula and applying negative pressures of −50, −100 and −150 mbar (corresponding to −50, −100 and −150 cm water column (cm H2O)) to the upper airways. This caused the upper airways to collapse, which manifested itself in an interruption of the airflow and a pressure drop in the tube system. This test was conducted prior to administration of the test substance and at certain intervals after administration of the test substance. An appropriately effective test substance could prevent this collapse of the airways in the inspiratory phase. After changeover from nasal breathing to breathing via the caudal cannula, it was not possible to measure any EMG activity of the Musculus genioglossus in the anaesthetized pig. As a further test, the negative pressure at which EMG activity restarted was then determined. This threshold value was, if a test substance was effective, shifted to more positive values. The test was likewise conducted prior to the administration of the test substance and at certain intervals after the administration of the test substance. The test substance was administered by the nasal route. The results shown in the tables which follow were conducted with the compounds listed in Table 1 as Example 1, Example 3 and Example 4. Unless stated otherwise, the data were measured at a negative pressure of −100 mbar (corresponding to −100 cm water column (cm H2O)) on the upper airways. The active ingredients listed in Table 1 as Example 1, Example 3 and Example 4 were dissolved in the various formulations listed in Table 2 below and administered in an amount of 0 μg, 3 μg, 10 μg, 30 μg or 100 μg per pig. The active ingredient formulation or the pure vehicle was each administered with a pipette at a volume of 400 μl in each nostril. The duration of action in this pig model is defined as the time [min] in which a collapse of the upper airways was not observed in any animal, as a mean value of the specified number of animals. A duration of action specified as “>” X min signifies that the experiment was terminated at X min and up to this point a collapse of the upper airways was still not observed in any animal

## COc1cccc(C(=O)N2CCN(Cc3c(-c4ccc(Cl)cc4)nc4ccccn34)CC2)n1 [Example 3, (4-{[2-(4-chlorophenyl)imidazo[1,2-a]pyridin-3-yl]methyl}piperazin-1-yl)(6-methoxypyridin-2-yl)methanone]
Formulation 1 (phosphate buffer pH 7/polysorbate 80 90/10, 0% PEG400), 3 μg nasal per pig, -100 mbar
  Duration of action, mean value: 150 min
Formulation 1 (phosphate buffer pH 7/polysorbate 80 90/10, 0% PEG400), 30 μg nasal per pig, -100 mbar
  Duration of action, mean value: 180* min
Formulation 2 (100% w/v PEG400), 3 μg nasal, -100 mbar
  Duration of action, mean value: >240 min
Formulation 3 (phosphate buffer pH 7/polysorbate 80/PEG400 70/10/20), 3 μg nasal per pig, -100 mbar
  Duration of action, mean value: 180 min
Formulation 3 (phosphate buffer pH 7/polysorbate 80/PEG400 70/10/20), 30 μg nasal per pig, -100 mbar
  Duration of action, mean value: 300 min
Formulation 4 (5% w/v PEG400, 10% polysorbate 80, 85% phosphate buffer pH 7), 3 μg nasal, -100 mbar
  Duration of action, mean value: 180 min
Formulation 5 (2.5% w/v PEG400, 10% polysorbate 80, 87.5% phosphate buffer pH 7), 3 μg nasal, -100 mbar
  Duration of action, mean value: 150 min
Formulation 6 (20% w/v PEG400, 2.5% w/v glycerol 85%, 10% polysorbate 80, 67.5% phosphate buffer pH 7), 3 μg nasal, -100 mbar
  Duration of action, mean value: 240 min
Formulation 7 (20% w/v propylene glycol, 10% polysorbate 80, 70% phosphate buffer pH 7), 30 μg nasal, -100 mbar
  Duration of action, mean value: 180 min
Formulation 9 (1.25% w/v Na-CMC, 10% polysorbate 80, 88.75% phosphate buffer pH 7, no PEG), 3 μg nasal, -100 mbar
  Duration of action, mean value: 120 min

## O=C(C1CCCC1)N1CCN(Cc2c(-c3ccc(Br)cc3)nc3ccccn23)CC1 [Example 1, (4-{[2-(4-bromophenyl)imidazo[1,2-a]pyridin-3-yl]methyl}piperazin-1-yl)(cyclopentyl)methanone]
Formulation 1 (0% PEG400), 10 μg nasal, reduced pressure -50 mbar
  Duration of action, mean value: 150 min
Formulation 1 (0% PEG400), 10 μg nasal, reduced pressure -100 mbar
  Duration of action, mean value: 120 min
Formulation 3 (20% w/v PEG400), 10 μg nasal, reduced pressure -50 mbar
  Duration of action, mean value: >210 min
Formulation 3 (20% w/v PEG400), 10 μg nasal, reduced pressure -100 mbar
  Duration of action, mean value: 180 min

## O=C(c1ccccc1F)N1CCN(Cc2c(-c3ccc(Br)cc3)nc3ccccn23)CC1 [Example 4, (4-{[2-(4-bromophenyl)imidazo[1,2-a]pyridin-3-yl]methyl}piperazin-1-yl)(2-fluorophenyl)methanone]
Formulation 1 (0% PEG400), 100 μg nasal, reduced pressure -50 mbar
  Duration of action, mean value: 180 min
Formulation 1 (0% PEG400), 100 μg nasal, reduced pressure -100 mbar
  Duration of action, mean value: 180 min
Formulation 3 (20% w/v PEG400), 100 μg nasal, reduced pressure -50 mbar
  Duration of action, mean value: >210 min
Formulation 3 (20% w/v PEG400), 100 μg nasal, reduced pressure -100 mbar
  Duration of action, mean value: 180 min
